Results as given in ChEMBL document CHEMBL2417394, “Exquisite selectivity for human toll-like receptor 8 in substituted furo[2,3-c]quinolines” (J Med Chem, 2013).
Calls of active or inactive are those of the source. The calls are words filed in the database; no cut-off is given here.

How the values were obtained:
[1] = biological target: Toll-like receptor 2 (Homo sapiens) (UniProt O60603); test: Modulation of human TLR2 expressed in HEK293 cells co-transfected with MD2 and sAP assessed as induction of NF-kappaB activity by reporter gene assay; format: cell-based
[2] = biological target: T1, Nucleotide-binding oligomerization domain-containing protein 1 (Homo sapiens) (UniProt Q9Y239); test: Modulation of NOD1 (unknown origin)
T1 sequence (whole entry): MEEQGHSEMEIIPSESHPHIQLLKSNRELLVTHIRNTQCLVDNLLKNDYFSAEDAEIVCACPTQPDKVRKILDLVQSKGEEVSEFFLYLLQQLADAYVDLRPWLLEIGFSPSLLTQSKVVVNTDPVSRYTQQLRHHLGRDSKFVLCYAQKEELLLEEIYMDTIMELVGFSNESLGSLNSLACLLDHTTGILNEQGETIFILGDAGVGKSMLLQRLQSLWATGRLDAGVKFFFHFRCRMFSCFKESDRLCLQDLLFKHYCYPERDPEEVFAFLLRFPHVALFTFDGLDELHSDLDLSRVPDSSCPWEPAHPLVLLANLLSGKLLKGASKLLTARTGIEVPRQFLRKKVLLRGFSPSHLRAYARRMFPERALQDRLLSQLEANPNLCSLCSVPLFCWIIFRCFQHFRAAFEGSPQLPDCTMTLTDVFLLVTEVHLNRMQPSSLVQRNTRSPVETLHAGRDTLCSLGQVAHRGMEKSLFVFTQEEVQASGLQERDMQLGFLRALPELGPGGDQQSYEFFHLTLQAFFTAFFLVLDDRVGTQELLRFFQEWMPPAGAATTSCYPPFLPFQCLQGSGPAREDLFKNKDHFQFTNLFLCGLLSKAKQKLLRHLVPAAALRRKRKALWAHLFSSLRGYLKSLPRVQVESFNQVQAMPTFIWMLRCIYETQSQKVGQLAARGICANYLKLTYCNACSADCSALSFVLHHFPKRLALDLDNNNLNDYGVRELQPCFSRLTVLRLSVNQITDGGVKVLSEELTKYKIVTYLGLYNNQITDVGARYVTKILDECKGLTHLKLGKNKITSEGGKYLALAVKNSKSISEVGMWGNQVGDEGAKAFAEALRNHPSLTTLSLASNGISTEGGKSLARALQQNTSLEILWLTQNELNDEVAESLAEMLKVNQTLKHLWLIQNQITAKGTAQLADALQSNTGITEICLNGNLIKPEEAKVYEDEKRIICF

[3] = biological target: Nucleotide-binding oligomerization domain-containing protein 2 (Homo sapiens) (UniProt Q9HC29); test: Modulation of NOD2 (unknown origin)
[4] = biological target: T2, Toll-like receptor 8 (Homo sapiens) (UniProt Q9NR97); test: Modulation of human TLR8 expressed in HEK293 cells co-transfected with MD2 and sAP assessed as induction of NF-kappaB activity by reporter gene assay; format: cell-based
T2 sequence (whole entry): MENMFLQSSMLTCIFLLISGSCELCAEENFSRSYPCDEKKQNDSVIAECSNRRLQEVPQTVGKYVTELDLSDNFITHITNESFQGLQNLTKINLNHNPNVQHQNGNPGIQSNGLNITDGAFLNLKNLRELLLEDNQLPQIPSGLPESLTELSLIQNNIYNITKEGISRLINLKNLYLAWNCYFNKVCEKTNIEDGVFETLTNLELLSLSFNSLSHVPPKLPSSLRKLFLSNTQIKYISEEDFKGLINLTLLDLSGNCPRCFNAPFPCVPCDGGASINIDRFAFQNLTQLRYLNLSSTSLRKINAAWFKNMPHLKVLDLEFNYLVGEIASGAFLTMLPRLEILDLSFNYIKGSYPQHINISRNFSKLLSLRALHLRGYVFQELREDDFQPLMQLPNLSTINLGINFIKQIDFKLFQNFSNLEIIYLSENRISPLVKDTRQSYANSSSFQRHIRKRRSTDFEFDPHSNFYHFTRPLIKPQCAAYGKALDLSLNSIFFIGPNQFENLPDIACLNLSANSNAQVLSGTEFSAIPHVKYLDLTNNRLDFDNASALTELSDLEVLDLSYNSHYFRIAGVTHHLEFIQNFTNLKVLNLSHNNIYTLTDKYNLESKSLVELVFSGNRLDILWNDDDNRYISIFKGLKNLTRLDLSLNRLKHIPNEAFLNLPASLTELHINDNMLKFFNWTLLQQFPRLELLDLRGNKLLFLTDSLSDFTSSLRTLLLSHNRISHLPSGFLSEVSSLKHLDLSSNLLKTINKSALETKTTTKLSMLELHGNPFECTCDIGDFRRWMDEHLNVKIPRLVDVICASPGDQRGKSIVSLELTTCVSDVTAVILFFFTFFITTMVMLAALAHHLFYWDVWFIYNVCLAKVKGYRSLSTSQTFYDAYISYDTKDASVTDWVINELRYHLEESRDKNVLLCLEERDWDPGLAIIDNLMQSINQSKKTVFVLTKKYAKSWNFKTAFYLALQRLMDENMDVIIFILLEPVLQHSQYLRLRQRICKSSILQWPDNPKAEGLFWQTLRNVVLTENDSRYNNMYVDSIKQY

Toll-like receptor 2 (Homo sapiens), sequence (O60603 whole entry, the tested form may be a part): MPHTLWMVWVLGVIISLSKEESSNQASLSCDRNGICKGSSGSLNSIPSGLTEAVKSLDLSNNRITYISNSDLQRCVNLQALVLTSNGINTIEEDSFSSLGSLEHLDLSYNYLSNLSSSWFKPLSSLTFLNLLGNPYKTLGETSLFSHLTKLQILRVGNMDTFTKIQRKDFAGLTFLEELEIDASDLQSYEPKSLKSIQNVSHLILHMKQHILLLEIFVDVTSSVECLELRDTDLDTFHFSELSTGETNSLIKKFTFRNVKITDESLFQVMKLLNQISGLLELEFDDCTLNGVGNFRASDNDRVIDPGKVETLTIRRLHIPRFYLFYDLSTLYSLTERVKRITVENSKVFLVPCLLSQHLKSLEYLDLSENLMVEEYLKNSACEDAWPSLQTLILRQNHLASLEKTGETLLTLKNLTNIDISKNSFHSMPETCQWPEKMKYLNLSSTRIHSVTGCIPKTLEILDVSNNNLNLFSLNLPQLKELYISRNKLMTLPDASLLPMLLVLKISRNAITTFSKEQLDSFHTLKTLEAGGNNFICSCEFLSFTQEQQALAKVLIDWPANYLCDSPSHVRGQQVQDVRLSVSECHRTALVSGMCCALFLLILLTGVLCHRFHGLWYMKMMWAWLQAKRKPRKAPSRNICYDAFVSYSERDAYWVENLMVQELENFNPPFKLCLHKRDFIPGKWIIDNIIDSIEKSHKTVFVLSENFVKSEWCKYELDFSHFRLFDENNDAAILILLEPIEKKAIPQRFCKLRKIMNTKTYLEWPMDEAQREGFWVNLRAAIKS
Nucleotide-binding oligomerization domain-containing protein 2 (Homo sapiens), sequence (Q9HC29 whole entry, the tested form may be a part): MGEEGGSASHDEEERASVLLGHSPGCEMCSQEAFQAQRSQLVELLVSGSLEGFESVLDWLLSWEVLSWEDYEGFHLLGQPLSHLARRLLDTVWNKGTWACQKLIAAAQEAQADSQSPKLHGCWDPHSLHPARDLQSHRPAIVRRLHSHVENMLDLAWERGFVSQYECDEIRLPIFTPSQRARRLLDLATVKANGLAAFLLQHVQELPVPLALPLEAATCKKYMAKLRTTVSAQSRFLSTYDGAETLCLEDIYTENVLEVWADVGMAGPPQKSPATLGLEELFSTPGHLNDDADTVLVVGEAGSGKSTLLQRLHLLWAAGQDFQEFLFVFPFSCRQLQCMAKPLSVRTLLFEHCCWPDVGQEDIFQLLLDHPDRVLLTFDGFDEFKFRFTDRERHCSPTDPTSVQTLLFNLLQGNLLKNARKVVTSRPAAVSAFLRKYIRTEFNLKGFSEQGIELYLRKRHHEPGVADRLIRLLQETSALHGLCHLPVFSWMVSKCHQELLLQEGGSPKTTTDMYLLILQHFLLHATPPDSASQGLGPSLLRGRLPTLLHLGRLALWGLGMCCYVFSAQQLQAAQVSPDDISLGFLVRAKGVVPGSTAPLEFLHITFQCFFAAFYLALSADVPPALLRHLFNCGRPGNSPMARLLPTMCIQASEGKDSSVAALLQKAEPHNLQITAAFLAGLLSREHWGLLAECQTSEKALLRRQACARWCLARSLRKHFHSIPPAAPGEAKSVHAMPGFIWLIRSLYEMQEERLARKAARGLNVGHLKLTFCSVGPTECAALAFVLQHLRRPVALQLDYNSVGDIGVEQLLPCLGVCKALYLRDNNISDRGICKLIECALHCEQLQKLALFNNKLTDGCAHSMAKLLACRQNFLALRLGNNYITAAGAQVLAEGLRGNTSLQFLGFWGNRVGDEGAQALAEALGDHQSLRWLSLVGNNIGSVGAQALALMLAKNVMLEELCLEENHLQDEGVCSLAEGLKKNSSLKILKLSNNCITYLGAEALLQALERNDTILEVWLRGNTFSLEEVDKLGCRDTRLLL

Compound | Activity [1] | Activity [2] | Activity [3] | Activity [4]
NCCc1cc2c(o1)c(N)nc1ccccc12 | Active | Active | Active | Active
CCCCc1cc2c(nc(N)c3ccccc32)o1 | inactive |  |  | inactive
